In ChEMBL document CHEMBL3822415, “Toward the Validation of Maternal Embryonic Leucine Zipper Kinase: Discovery, Optimization of Highly Potent and Selective Inhibitors, and Preliminary Biology Insight” (J Med Chem, 2016):
Values after ≈ are worked out from the molar mass of the structure shown. Blank lines part the entries; values can stand above or below the molecule they belong to.

How the values were obtained:
[1] = target: T1, Maternal embryonic leucine zipper kinase (Homo sapiens, UniProt Q14680); assay: Inhibition of MELK catalytic domain (unknown origin) preincubated for 20 mins followed by addition of KinEASE STK S1 peptide as substrate in presence of 20 uM ATP measured after 20 mins by time-resolved fluorescence assay
[2] = target: T1, Maternal embryonic leucine zipper kinase; assay: Inhibition of MELK catalytic domain (unknown origin) preincubated for 20 mins followed by addition of KinEASE STK S1 peptide as substrate in presence of 2 mM ATP measured after 20 mins by time-resolved fluorescence assay
[3] = target: T2, Receptor-type tyrosine-protein kinase FLT3 (Homo sapiens, UniProt P36888); assay: Inhibition of FLT3 (unknown origin)
T2 sequence (P36888 whole entry): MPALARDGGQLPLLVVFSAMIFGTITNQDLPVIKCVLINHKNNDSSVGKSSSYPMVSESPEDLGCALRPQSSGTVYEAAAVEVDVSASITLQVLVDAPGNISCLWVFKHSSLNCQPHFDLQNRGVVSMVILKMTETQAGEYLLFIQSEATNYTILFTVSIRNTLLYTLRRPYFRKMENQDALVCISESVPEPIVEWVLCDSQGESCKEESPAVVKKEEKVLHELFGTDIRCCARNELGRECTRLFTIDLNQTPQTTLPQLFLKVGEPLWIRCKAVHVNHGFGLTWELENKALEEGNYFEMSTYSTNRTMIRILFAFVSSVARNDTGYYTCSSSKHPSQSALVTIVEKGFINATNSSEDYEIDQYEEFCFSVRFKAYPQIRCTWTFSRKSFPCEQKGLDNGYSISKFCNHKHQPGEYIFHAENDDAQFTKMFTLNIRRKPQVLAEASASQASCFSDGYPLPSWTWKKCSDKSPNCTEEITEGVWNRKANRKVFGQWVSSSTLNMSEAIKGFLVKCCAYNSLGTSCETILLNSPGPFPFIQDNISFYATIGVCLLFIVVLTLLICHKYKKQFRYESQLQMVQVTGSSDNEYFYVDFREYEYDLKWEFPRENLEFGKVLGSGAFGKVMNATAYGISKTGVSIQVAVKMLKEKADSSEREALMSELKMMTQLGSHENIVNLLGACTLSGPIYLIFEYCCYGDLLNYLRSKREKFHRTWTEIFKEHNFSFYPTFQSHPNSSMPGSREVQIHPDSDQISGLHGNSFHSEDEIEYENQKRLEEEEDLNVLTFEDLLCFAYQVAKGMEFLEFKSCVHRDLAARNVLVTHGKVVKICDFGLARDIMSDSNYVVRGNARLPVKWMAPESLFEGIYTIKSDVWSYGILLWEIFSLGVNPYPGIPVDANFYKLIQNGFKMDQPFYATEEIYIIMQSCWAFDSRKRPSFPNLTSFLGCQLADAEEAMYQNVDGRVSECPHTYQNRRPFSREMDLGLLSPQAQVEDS

[4] = target: T3, Platelet-derived growth factor receptor alpha (Homo sapiens, UniProt P16234); assay: Inhibition of PDGFR-alpha (unknown origin)
[5] = target: Mitogen-activated protein kinase kinase kinase kinase 4 (Homo sapiens, UniProt O95819); assay: Inhibition of MAP4K4 (unknown origin)
MDA-MB-468 = assay: Antiproliferative activity against MELK-dependent human MDA-MB-468 cells assessed as reduction in cell viability after 7 days by CellTiter-Glo assay; conditions: MDA-MB-468, 168 h
MCF7 = assay: Antiproliferative activity against MELK-independent ER-positive human MCF7 cells assessed as reduction in cell viability after 7 days by CellTiter-Glo assay; conditions: MCF7, 168 h
[6] = target: T1, Maternal embryonic leucine zipper kinase; assay: Inhibition of full-length MELK (unknown origin) preincubated for 20 mins followed by addition of KinEASE STK S1 peptide as substrate in presence of 20 uM ATP measured after 20 mins by time-resolved fluorescence assay
[7] = target: T1, Maternal embryonic leucine zipper kinase; assay: Binding affinity to MELK (unknown origin) expressed in Escherichia coli by SPR analysis
[8] = Half life of the compound; type: physicochemical
[9] = target: Receptor-type tyrosine-protein kinase FLT3 (Homo sapiens, UniProt P36888, ITD); assay: Inhibition of partial-length human FLT3 ITD mutant expressed in bacterial expression system by KINOMEscan assay
[10] = target: T4, Serine/threonine-protein kinase haspin (Homo sapiens, UniProt Q8TF76); assay: Inhibition of partial-length human wild type HASPIN expressed in mammalian expression system by KINOMEscan assay
T4 sequence (Q8TF76 whole entry): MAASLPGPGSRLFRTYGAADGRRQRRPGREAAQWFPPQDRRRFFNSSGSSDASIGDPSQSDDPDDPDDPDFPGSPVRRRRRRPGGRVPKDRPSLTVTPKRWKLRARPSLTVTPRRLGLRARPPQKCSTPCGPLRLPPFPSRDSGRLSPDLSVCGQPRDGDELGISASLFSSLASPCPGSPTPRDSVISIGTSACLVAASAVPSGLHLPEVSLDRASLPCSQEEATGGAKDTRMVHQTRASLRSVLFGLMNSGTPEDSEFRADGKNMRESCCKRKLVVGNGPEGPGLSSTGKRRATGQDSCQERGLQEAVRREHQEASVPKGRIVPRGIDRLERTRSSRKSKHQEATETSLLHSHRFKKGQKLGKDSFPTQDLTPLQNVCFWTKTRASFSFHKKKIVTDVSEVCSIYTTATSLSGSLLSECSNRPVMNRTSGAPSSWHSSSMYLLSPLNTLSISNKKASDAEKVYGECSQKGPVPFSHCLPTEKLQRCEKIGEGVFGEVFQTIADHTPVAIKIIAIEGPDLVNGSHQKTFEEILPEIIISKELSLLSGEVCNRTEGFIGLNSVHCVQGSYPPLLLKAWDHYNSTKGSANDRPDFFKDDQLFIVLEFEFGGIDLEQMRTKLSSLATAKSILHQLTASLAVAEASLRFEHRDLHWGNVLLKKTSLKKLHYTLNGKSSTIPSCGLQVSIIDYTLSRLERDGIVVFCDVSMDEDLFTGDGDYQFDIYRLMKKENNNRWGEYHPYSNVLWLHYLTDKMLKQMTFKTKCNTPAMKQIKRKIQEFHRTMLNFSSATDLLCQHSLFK

[11] = target: Mast/stem cell growth factor receptor Kit (Homo sapiens, UniProt P10721, A829P); assay: Inhibition of partial-length human KIT A829P mutant expressed in mammalian expression system by KINOMEscan assay
[12] = target: T3, Platelet-derived growth factor receptor alpha; assay: Inhibition of partial-length human wild type PDGFR-alpha expressed in mammalian expression system by KINOMEscan assay
[13] = Solubility of the compound at pH 6.8; type: physicochemical; conditions: buffer
[14] = Apparent permeability across apical to basolateral side in human Caco2 cells; type: ADME, cell-based; conditions: Caco-2
[15] = Extraction ratio in mouse microsomes; type: ADME, Microsome
Plasma [16] = assay: Metabolic stability in mouse plasma measured after 4 hrs; type: ADME, cell-free
Plasma [17] = assay: Drug uptake in plasma of athymic nude mouse at 120 to 240 mg/kg, sc qd; type: ADME, organism-based; conditions: in vivo
Plasma [18] = assay: Drug uptake in plasma of athymic nude mouse at 120 mg/kg, sc bid; type: ADME, organism-based; conditions: in vivo
[19] = AUC (0 to 7 hrs) in C57BL/6 mouse at 1 mg/kg, iv by LC-MS/MS analysis; type: ADME, organism-based; parameters: time < 7 hr, dose 1 mg/kg, route intravenous; conditions: in vivo
[20] = Clearance in C57BL/6 mouse at 1 mg/kg, iv by LC-MS/MS analysis; type: ADME, organism-based; conditions: in vivo
[21] = Volume of distribution at steady state in C57BL/6 mouse at 1 mg/kg, iv by LC-MS/MS analysis; type: ADME, organism-based; conditions: in vivo, read-out: Vdss
[22] = AUC (0 to 7 hrs) in C57BL/6 mouse at 10 mg/kg, po by LC-MS/MS analysis; type: ADME, organism-based; parameters: time < 7 hr, dose 10 mg/kg, route oral; conditions: in vivo
[23] = Cmax in C57BL/6 mouse at 10 mg/kg, po by LC-MS/MS analysis; type: ADME, organism-based; parameters: dose 10 mg/kg, route oral; conditions: in vivo
[24] = Tmax in C57BL/6 mouse at 10 mg/kg, po by LC-MS/MS analysis; type: ADME, organism-based; conditions: in vivo
[25] = Oral bioavailability in C57BL/6 mouse at 10 mg/kg by LC-MS/MS analysis; type: ADME, organism-based; conditions: in vivo
[26] = AUC (0 to 7 hrs) in C57BL/6 mouse at 30 mg/kg, sc by LC-MS/MS analysis; type: ADME, organism-based; parameters: dose 30 mg/kg, time < 7 hr, route subcutaneous; conditions: in vivo
[27] = Cmax in C57BL/6 mouse at 30 mg/kg, sc by LC-MS/MS analysis; type: ADME, organism-based; parameters: dose 30 mg/kg, route subcutaneous; conditions: in vivo
[28] = Tmax in C57BL/6 mouse at 30 mg/kg, sc by LC-MS/MS analysis; type: ADME, organism-based; conditions: in vivo
[29] = AUC (0 to 7 hrs) in C57BL/6 mouse at 5 mg/kg, po by LC-MS/MS analysis; type: ADME, organism-based; parameters: dose 5 mg/kg, time < 7 hr, route oral; conditions: in vivo
[30] = Cmax in C57BL/6 mouse at 5 mg/kg, po by LC-MS/MS analysis; type: ADME, organism-based; parameters: dose 5 mg/kg, route oral; conditions: in vivo
[31] = Tmax in C57BL/6 mouse at 5 mg/kg, po by LC-MS/MS analysis; type: ADME, organism-based; conditions: in vivo
[32] = Oral bioavailability in C57BL/6 mouse at 5 mg/kg by LC-MS/MS analysis; type: ADME, organism-based; conditions: in vivo

T1 sequence (Q14680 whole entry, the tested form may be a part): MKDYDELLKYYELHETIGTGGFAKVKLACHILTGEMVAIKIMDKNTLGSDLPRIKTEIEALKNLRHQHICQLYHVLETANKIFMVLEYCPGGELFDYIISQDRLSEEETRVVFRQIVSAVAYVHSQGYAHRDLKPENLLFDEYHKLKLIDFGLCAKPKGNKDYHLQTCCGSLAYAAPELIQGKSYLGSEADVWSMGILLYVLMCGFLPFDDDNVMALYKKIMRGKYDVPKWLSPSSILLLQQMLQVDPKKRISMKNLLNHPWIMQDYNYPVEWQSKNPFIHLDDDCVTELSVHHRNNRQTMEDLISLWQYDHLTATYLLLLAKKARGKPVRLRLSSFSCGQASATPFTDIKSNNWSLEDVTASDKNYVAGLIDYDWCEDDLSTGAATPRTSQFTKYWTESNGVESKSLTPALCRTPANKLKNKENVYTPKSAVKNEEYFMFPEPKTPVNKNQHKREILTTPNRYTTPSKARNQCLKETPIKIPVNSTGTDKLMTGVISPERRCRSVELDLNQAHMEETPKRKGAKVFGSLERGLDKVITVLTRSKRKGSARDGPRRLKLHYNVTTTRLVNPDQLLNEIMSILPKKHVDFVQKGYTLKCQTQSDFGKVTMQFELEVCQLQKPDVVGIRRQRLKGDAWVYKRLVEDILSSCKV
T3 sequence (P16234 whole entry): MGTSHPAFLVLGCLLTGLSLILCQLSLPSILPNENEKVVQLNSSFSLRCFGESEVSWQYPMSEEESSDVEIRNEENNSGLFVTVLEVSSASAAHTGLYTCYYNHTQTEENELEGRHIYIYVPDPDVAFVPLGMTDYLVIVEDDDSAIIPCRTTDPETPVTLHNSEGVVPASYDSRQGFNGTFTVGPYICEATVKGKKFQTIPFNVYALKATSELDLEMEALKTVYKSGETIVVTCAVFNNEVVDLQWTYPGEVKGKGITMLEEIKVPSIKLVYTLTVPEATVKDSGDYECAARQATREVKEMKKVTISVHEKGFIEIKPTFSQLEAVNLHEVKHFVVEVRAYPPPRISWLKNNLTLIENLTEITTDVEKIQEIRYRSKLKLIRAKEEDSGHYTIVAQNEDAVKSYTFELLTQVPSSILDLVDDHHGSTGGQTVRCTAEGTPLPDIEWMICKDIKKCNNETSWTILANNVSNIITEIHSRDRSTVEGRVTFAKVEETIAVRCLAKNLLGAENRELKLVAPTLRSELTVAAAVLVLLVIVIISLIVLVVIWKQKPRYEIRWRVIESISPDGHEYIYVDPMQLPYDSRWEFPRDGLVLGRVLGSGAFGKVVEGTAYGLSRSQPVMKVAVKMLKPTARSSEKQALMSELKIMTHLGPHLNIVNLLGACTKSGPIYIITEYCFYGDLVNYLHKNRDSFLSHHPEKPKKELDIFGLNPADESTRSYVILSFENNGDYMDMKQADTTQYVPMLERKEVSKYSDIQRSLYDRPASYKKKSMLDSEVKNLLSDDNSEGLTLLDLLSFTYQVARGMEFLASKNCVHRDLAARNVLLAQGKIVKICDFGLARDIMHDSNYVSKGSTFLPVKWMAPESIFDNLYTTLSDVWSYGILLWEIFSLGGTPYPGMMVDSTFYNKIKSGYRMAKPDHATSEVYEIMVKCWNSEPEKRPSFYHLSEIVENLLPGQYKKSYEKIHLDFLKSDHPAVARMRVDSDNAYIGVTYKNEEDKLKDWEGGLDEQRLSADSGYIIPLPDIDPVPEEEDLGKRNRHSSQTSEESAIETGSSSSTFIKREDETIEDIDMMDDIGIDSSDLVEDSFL
Sequence of Mitogen-activated protein kinase kinase kinase kinase 4 (O95819 whole entry): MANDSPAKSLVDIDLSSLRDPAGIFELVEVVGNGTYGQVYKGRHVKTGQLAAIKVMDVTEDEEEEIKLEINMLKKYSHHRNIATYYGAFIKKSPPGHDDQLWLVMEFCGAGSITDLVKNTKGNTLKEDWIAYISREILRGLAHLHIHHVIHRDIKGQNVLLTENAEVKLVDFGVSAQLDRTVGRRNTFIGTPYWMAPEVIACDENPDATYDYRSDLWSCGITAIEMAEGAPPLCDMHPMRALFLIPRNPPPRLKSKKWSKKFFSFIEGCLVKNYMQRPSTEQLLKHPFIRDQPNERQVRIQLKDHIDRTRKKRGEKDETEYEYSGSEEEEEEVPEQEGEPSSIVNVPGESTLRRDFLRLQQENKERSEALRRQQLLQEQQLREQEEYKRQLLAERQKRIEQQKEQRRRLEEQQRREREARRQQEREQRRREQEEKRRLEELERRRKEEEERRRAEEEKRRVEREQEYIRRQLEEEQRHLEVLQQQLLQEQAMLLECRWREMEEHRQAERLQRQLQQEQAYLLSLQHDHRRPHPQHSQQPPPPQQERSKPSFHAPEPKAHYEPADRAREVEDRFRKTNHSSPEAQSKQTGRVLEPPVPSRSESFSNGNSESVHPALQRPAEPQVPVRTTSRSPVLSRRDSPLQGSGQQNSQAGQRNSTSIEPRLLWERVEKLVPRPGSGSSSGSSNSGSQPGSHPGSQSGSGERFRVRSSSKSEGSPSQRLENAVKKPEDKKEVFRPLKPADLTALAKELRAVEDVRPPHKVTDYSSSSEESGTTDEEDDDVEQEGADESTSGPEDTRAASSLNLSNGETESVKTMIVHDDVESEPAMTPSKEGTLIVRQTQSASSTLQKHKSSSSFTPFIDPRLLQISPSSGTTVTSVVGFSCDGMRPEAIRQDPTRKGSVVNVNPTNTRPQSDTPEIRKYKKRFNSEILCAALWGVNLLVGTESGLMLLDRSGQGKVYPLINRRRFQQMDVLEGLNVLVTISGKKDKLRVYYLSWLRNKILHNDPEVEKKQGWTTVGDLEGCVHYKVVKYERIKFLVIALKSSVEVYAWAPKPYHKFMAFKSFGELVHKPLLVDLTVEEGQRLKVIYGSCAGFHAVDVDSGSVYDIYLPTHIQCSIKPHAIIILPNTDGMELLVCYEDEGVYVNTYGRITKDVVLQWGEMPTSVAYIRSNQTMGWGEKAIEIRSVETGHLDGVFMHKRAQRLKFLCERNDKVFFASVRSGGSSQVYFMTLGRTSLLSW
Sequence of Mast/stem cell growth factor receptor Kit (P10721 26-976 A829P limits assumed): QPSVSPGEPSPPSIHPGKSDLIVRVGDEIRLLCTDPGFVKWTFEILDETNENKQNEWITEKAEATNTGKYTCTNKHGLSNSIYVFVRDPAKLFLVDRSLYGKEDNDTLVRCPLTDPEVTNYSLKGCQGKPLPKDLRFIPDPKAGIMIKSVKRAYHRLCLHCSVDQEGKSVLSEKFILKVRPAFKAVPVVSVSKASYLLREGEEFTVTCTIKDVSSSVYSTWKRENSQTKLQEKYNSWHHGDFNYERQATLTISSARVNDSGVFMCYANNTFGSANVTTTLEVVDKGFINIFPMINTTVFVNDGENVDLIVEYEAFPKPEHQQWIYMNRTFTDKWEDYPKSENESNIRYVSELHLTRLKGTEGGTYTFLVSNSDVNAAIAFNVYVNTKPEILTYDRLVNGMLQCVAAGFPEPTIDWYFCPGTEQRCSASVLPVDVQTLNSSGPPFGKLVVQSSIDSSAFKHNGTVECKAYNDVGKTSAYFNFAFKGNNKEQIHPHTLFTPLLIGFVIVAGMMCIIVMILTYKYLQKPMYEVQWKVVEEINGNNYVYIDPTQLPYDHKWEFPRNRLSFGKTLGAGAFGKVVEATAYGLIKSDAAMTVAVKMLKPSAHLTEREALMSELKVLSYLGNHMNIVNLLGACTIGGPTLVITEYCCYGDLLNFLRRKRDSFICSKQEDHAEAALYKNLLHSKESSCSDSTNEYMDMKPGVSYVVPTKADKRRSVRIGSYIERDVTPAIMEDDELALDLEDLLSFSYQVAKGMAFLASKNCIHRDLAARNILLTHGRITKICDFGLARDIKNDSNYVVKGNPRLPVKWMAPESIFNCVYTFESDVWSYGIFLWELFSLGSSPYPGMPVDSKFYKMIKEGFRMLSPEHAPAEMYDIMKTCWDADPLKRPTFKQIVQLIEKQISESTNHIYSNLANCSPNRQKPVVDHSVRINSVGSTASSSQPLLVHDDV

SMILES: CS(=O)(=O)c1ccc(-n2cc(-c3ccccc3)cn2)cc1
IC50 [1]: > 20000 nM

SMILES: O=C(NCc1ccccn1)c1ccc(-n2cc(-c3ccncc3)cn2)cc1
IC50 [3]: < 5000 nM
IC50 [4]: < 5000 nM
IC50 [5]: < 5000 nM
IC50 [1]: 180 nM
IC50 [2]: 18800 nM

SMILES: CN1CCN(c2ccc(-n3cc(-c4ccncc4)cn3)cc2)CC1
IC50 [1]: 80 nM
IC50 [2]: 5000 nM

SMILES: COc1cnccc1-c1cnn(-c2ccc(N3CCN(C)CC3)cc2)c1
IC50 [1]: 64 nM

SMILES: CS(=O)(=O)c1ccc(-n2cc(-c3ccncc3)cn2)cc1
IC50 [1]: 400 nM

SMILES: CN1CCN(c2ccc(-n3cc(-c4ccncc4OC[C@H]4CC[C@H](N)CC4)cn3)cc2)CC1
IC50 [1]: 1 nM
IC50 [2]: 57 nM
IC50 (MDA-MB-468): 60 nM
IC50 (MCF7): 1200 nM

SMILES: CN1CCN(c2ccc(-n3cc(-c4ccncc4OCC4CCNCC4)cn3)cc2)CC1
IC50 [1]: 2 nM
IC50 [2]: 140 nM
IC50 [6]: 5 nM
IC50 [7]: 2 nM
half-life [8]: 1 min
IC50 [9]: 180 nM
IC50 [10]: 190 nM
IC50 [11]: > 10000 nM
IC50 [12]: 420 nM
solubility [13]: 220 µg/mL (≈ 509 µM)
Papp A→B [14]: 14 ×10⁻⁶ cm/s
hepatic extraction ratio [15]: 0.75
Stability (Plasma [16]): Stable
Drug uptake (Plasma [17]): Active
Drug uptake (Plasma [18]): Active
AUC(0-t) at 7 h [19]: 0.23 µM·h
clearance [20]: 114 mL/min/kg
Vd [21]: 40.8 L/kg
AUC(0-t) at 7 h [22]: 0.0832 µM·h
Cmax [23]: 34 nM
Tmax [24]: 30 min
bioavailability [25]: 3.6%
AUC(0-t) at 7 h [26]: 18.9 µM·h
Cmax [27]: 6560 nM
Tmax [28]: 24 min
IC50 (MDA-MB-468): 110 nM
IC50 (MCF7): 3680 nM

SMILES: CN1CCN(c2ccc(-n3cc(-c4ccncc4F)cn3)cc2)CC1
IC50 [1]: 70 nM
IC50 [2]: 5000 nM

SMILES: CS(=O)(=O)c1ccc(-n2cc(-c3ccc(O)cc3)cn2)cc1
IC50 [1]: 520 nM

SMILES: CN1CCN(c2ccc(-c3cc(-c4ccccc4)n[nH]3)cc2)CC1
IC50 [1]: 670 nM

The next lines start with the values.

IC50 [1]: 6 nM
IC50 [2]: 260 nM
SMILES: CN1CCN(c2ccc(-n3cc(-c4ccncc4OC4CCNCC4)cn3)cc2)CC1

IC50 [1]: 13 nM
SMILES: Fc1ccccc1-n1cc(-c2ccncc2OCC2CCNCC2)cn1

IC50 [1]: 6 nM
IC50 [2]: 210 nM
SMILES: c1cc(-c2cnn(-c3ccc(N4CCOCC4)cc3)c2)c(OCC2CCNCC2)cn1

IC50 [1]: 4 nM
IC50 [2]: 150 nM
SMILES: CN1CCN(c2ccc(-n3cc(-c4ccncc4OC4CCCCC4)cn3)cc2)CC1

IC50 [1]: 9 nM
IC50 [2]: 410 nM
SMILES: CC(C)COc1cnccc1-c1cnn(-c2ccc(N3CCN(C)CC3)cc2)c1

IC50 [1]: 36 nM
AUC(0-t) at 7 h [29]: 3.44 µM·h
Cmax [30]: 1030 nM
Tmax [31]: 102 min
bioavailability [32]: 43%
SMILES: c1ccc(-n2cc(-c3ccncc3OCC3CCNCC3)cn2)cc1

IC50 [1]: 25 nM
IC50 [2]: 1440 nM
SMILES: CN1CCN(c2ccc(-n3cc(-c4ccncc4OCc4ccncc4)cn3)cc2)CC1

IC50 [1]: 0.3 nM
SMILES: Fc1cc(N2CCOCC2)ccc1-n1cc(-c2ccncc2OCC2CCNCC2)cn1
